Experimental findings from patent US9234200B2, “Oligonucleotide, glucocorticoid sensitivity enhancer, pharmaceutical composition, and expression vector” (National University Corporation Tokyo University of …, priority 2011, dated 2016) are described below.

One data set relates to Raji cells. Description: BrdU incorporation assay, glucocorticoid sensitivity of oligonucleotide-transfected Raji cells. It is filed as cell-based, human. To be noted: quadruplicate (Table 7), label dexamethasone = no oligonucleotide transfected. The protocol: In order to examine the change of glucocorticoid sensitivity of cells caused by introduction of oligonucleotide 1, cell proliferation was quantified by a 5-bromo-2′-deoxyuridine (BrdU) incorporation assay. Dexamethasone (manufactured by Biomol) was used as a glucocorticoid. The concentration of dexamethasone was set to varied concentrations of 0 μM (no addition), 0.1 μM, 0.5 μM, 1 μM, 5 μM, and 10 μM.
Raji cells were cultured in serum-free RPMI1640 medium for 12 hours to synchronize the cell cycle, and then re-suspended in RPMI1640 medium supplemented with serum and inoculated onto a 96-well plate.
After dexamethasone was added, the cells were cultured for 22 hours. Then, BrdU was added thereto, and the cells were cultured for another 2 hours. After centrifugation, the supernatant was discarded, and the cells were dried and fixed. The fixed cells were allowed to react with a peroxidase-labeled anti-BrdU antibody for 1 hour at room temperature. Subsequently, the cells were washed three times with PBS, and tetramethylbenzidine was added thereto. When noticeable coloring was observed, the reaction was stopped by adding H2SO4 (1M). After vigorous agitation, absorbance at 450 nm was measured using a plate reader.
Using the Raji cells to which dexamethasone was not added as a control, cell proliferation inhibitory rate (%) was calculated based on the relative ratio of the obtained absorbance. Here, statistical significance was assessed with one-way analysis of variance and multiple comparison. Tukey's multiple comparison was used for the multiple comparison. A significance level of P<0.05 (vs. no addition of oligonucleotide) was regarded as a significant difference.
BrdU incorporation assay was performed in the same manner as in the above, and alternation of the glucocorticoid sensitivity of the cells caused by the introduction of any one of oligonucleotides 2 to 5 was examined. Each experiment was carried out in quadruplicate. The values shown in Table 7 are average values thereof.
Background: Incorporation of labelled thymidine or its analogues reports DNA synthesis.

The test system of the next data set is GRα and GRβ. Put plainly: GRα and GRβ expression levels in Raji cells transfected with oligonucleotide (RT-PCR and PCR).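 For GAPDH: mean of three independent experiments.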 It is filed as cell-based, human. To be noted: for GAPDH / GRα / GRβ: expression level (band intensity), oligonucleotide 300 nM by electroporation, 24 h; for GAPDH: endogenous control; for GRα/GAPDH / GRβ/GAPDH / Relative value of GRα/GRβ: oligonucleotide 300 nM; for Relative value of GRα/GRβ: cells not transfected = 1. The protocol:
Raji cells (manufactured by Japan Health Science Foundation) derived from human Burkitt's lymphoma were used in experiments.
Raji cells were cultured and maintained in RPMI1640 medium (manufactured by Gibco) at 37° C. in an atmosphere of 5% CO2, the RPMI1640 medium being supplemented with 10% fetal bovine serum (FBS) (manufactured by Filtoron), 100 U/ml penicillin, and 100 μg/ml streptomycin.
2×10^6 Raji cells were washed with phosphate-buffered saline (PBS) and suspended in 100 μl transfection reagent of an Amaxa cell line Nucleofector Kit V (manufactured by Lonza).
After the Raji cells were cultured in the above-described medium for 24 hours, the Raji cells were used for subsequent experiments.
The expression level of glyceraldehyde-3-phosphate dehydrogenase (GAPDH) was determined as an endogenous control.
After the Raji cells were washed with PBS, RNA was extracted using a FastPure RNA Kit (manufactured by Takara Bio Inc.), and reverse transcription was performed using a PrimeScript 1st strand cDNA synthesis kit (manufactured by Takara Bio Inc.). The obtained cDNA was amplified using Platinum Taq DNA polymerase (manufactured by Invitrogen) and PCR primers (having the base sequences shown in Table 2) specific for the gene of interest. The PCR conditions included: performing initial denaturation at 94° C. for 2 minutes; performing 35 cycles of denaturation (94° C. for 30 seconds), annealing (55° C. for 30 seconds), and extension (72° C. for 1 minute); and then performing final extension at 72° C. for 4 minutes.
After the PCR was performed, DNA was separated by […] electrophoresis on a 2% agarose gel containing ethidium bromide, and the intensity of bands was quantified using an image analyzer GEL PRINT 2000i/VGA (manufactured by Genomic Solutions).

Take “Oligonucleotide 2: an oligonucleotide having a base sequence represented by SEQ ID NO: 2 (5′-AAAAGGGCACAGCTTCTTTTCCCATTTAATGAAA-3′) (listed as DNA, chemistry not given here)”: the “cell proliferation inhibitory rate” value with Raji cells (dexamethasone 0.1 μM) was 10.541%. Besides, the “cell proliferation inhibitory rate” value in the data set with Raji cells (dexamethasone 0.5 μM) came out at 19.044%. Moreover, in the data set on Raji cells (dexamethasone 1 μM), the “cell proliferation inhibitory rate” value is reported as 22.769%. Moreover, the “cell proliferation inhibitory rate” value in the data set on Raji cells (dexamethasone 5 μM) stood at 36.402%. In the data set with GRα and GRβ, this substance yielded a GAPDH of 3169.938, a GRα of 3340.440, a GRβ of 4641.922 and a GRα/GAPDH of 1.054. In the data set with GRα and GRβ, the GRβ/GAPDH is 1.467 and the “Relative value of GRα/GRβ” value is reported as 1.226.

As to “Oligonucleotide 3: an oligonucleotide having a base sequence represented by SEQ ID NO: 3 (5′-TAAGATGACTTTCTTTTCCCCCACGTATCCT-3′) (listed as DNA, chemistry not given here)”, in the data set on Raji cells (dexamethasone 0.1 μM), the “cell proliferation inhibitory rate” value worked out at 16.924%. Further, the “cell proliferation inhibitory rate” value in the data set with Raji cells (dexamethasone 0.5 μM) is on record as 34.134%. For the same substance, the “cell proliferation inhibitory rate” value in the data set with Raji cells (dexamethasone 1 μM) worked out at 37.164%. In addition, the “cell proliferation inhibitory rate” value in the data set on Raji cells (dexamethasone 5 μM) worked out at 48.256%. Further, in the data set with GRα and GRβ, the GAPDH was 3128.467, the GRα was 3177.814, the GRβ is on record as 4596.457 and the GRα/GAPDH worked out at 1.015. Moreover, in the data set on GRα and GRβ, the GRβ/GAPDH amounted to 1.471 and the “Relative value of GRα/GRβ” value came out at 1.182.

As for “Oligonucleotide 5: an oligonucleotide having a base sequence represented by SEQ ID NO: 5 (5′-CAGATTTTTTTATTATGATGT-3′) (listed as DNA, chemistry not given here)”, the “cell proliferation inhibitory rate” value with Raji cells (dexamethasone 0.1 μM) is recorded as 29.842%. Further, the “cell proliferation inhibitory rate” value with Raji cells (dexamethasone 0.5 μM) was determined as 26.632%. The “cell proliferation inhibitory rate” value with Raji cells (dexamethasone 1 μM) is reported as 32.895%. For the same substance, the “cell proliferation inhibitory rate” value in the data set on Raji cells (dexamethasone 5 μM) was found to be 36.053%. In the data set with GRα and GRβ, this substance came in with a GAPDH of 3087.403, a GRα of 3210.228, a GRβ of 4516.989 and a GRα/GAPDH of 1.041. For the same substance, in the data set on GRα and GRβ, the GRβ/GAPDH was determined as 1.461 and the “Relative value of GRα/GRβ” value stood at 1.210.
